# Experimental data reported in US6737383B1, “Herbicidal oxadiazolidines” (priority 1999, dated 2004).
# What was measured:
# blackgrass = experiment: Test E blackgrass; assay type: in vivo, Alopecurus myosuroides; conditions: Preemergence; for Blackgrass plant response rating (0 to 100 scale): Rate 250 g/ha
# wild oat = experiment: Test E wild oat; assay type: in vivo, Avena fatua; conditions: Preemergence; for Wild oat plant response rating (0 to 100 scale): Rate 250 g/ha
# sugar beet = experiment: Test B pre/postemergence sugar beet; assay type: in vivo, Beta vulgaris
# In short: (§1)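 Response is a visual 0-to-10 score relative to untreated plants, where 0 means no effect and 10 means complete control, taken twelve to sixteen days after application. Treatments went onto soil at planting and onto foliage of 1- to 4-leaf plants, using a surfactant-containing non-phytotoxic solvent.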
# Italian ryegrass = experiment: Test E Italian ryegrass; assay type: in vivo, Lolium multiflorum; conditions: Preemergence; for I. Ryegrass plant response rating (0 to 100 scale): Rate 250 g/ha
# crabgrass = experiment: Test B pre/postemergence crabgrass; assay type: in vivo, Digitaria sanguinalis
# In short: as §1
# giant foxtail = experiment: Test B pre/postemergence giant foxtail; assay type: in vivo, Setaria faberii
# In short: as §1
# winter barley = experiment: Test E winter barley; assay type: in vivo, Hordeum vulgare; conditions: Preemergence; for Barley (winter) plant response rating (0 to 100 scale): Rate 250 g/ha
# green foxtail = experiment: Test E green foxtail; assay type: in vivo, Setaria viridis; conditions: Preemergence; for Green foxtail plant response rating (0 to 100 scale): Rate 250 g/ha
# winter wheat [1] = experiment: Test E winter wheat; assay type: in vivo, Triticum aestivum; conditions: Postemergence; for Wheat (winter) plant response rating: Rate 250 g/ha
# In short: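 Compounds formulated in non-phytotoxic solvent mixture with surfactant; for postemergence, sprayed on plants at 1- to 4-leaf stage grown in 60:40 sandy loam/greenhouse potting mix. Kept in greenhouse ~21 to 28 days, then visually rated against untreated controls.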
# soybean = experiment: Test B pre/postemergence soybean; assay type: in vivo, Glycine max
# In short: as §1
# winter wheat [2] = experiment: Test E winter wheat; assay type: in vivo, Triticum aestivum; conditions: Preemergence; for Wheat (winter) plant response rating (0 to 100 scale): Rate 250 g/ha
# [3] = Rate 1000 g/ha, 0 to 100 scale, 0 no effect, 100 complete control
# [4] = Rate 500 g/ha, 0 to 100 scale (0 no effect, 100 complete control)
# [5] = Preemergence, Rate 62 g/ha, scale of 0 to 10 where 0 is no effect and 10 is complete control
# [6] = Preemergence, Rate 250 g/ha, scale of 0 to 10 where 0 is no effect and 10 is complete control
# [7] = Preemergence, Rate 500 g/ha, scale of 0 to 10 where 0 is no effect and 10 is complete control
# [8] = Rate 62 g/ha, Postemergence, scale 0 to 10 (0 no effect, 10 complete control)
# [9] = Rate 125 g/ha, Postemergence, scale of 0 to 10 where 0 is no effect and 10 is complete control
# [10] = Rate 125 g/ha, Preemergence, scale of 0 to 10 where 0 is no effect and 10 is complete control
# [11] = Rate 250 g/ha, Postemergence, scale of 0 to 10 where 0 is no effect and 10 is complete control
# [12] = Rate 500 g/ha, Postemergence, scale 0 to 10, 0 no effect, 10 complete control
# [13] = Rate 1000 g/ha, 0 to 100 scale where 0 is no effect and 100 is complete control
# [14] = 0 to 100 scale where 0 is no effect and 100 is complete control
# [15] = Rate 500 g/ha, 0 to 100 scale, 0 is no effect, 100 is complete control
# [16] = Postemergence, Rate 31 g/ha, visual rating, scale 0 to 10 (0 no effect, 10 complete control)
# [17] = Preemergence, Rate 31 g/ha, visual rating, scale 0 to 10 (0 no effect, 10 complete control)
# [18] = Rate 16 g/ha, Postemergence, scale 0 to 10, 0 no effect, 10 complete control
# [19] = Rate 16 g/ha, Preemergence, scale 0 to 10, 0 no effect, 10 complete control
smiles,measurement,setting,value
CC1Cc2cccc(-n3c(=O)on(C(=O)N(c4ccc(F)cc4)C(C)C)c3=O)c2O1 (centres unmarked) [Compound 281],Blackgrass plant response rating (0 to 100 scale),blackgrass,50
same,"Plant response rating, Blackgrass",blackgrass; [3],50
same,Wild oat plant response rating (0 to 100 scale),wild oat,70
same,"Plant response rating, Wild oat",wild oat; [4],65
same,"Plant response rating, Wild oat",wild oat; [3],80
same,Sugarbeets plant response rating,sugar beet; [5],0
same,Sugarbeets plant response rating,sugar beet; [6],0
same,"Plant response rating, Sugarbeets",sugar beet; [7],0
same,Sugarbeets plant response rating,sugar beet; [8],0
same,Sugarbeets plant response rating,sugar beet; [9],0
same,Sugarbeets plant response rating,sugar beet; [10],0
same,"Plant response rating, Sugarbeets",sugar beet; [11],0
same,Sugarbeets plant response rating,sugar beet; [12],4
same,I. Ryegrass plant response rating (0 to 100 scale),Italian ryegrass,60
same,"Plant response rating, I. Ryegrass",Italian ryegrass; [4],60
same,"Plant response rating, I. Ryegrass",Italian ryegrass; [3],60
same,Crabgrass plant response rating,crabgrass; [5],2
same,Crabgrass plant response rating,crabgrass; [6],10
same,"Plant response rating, Crabgrass",crabgrass; [7],10
same,Crabgrass plant response rating,crabgrass; [8],0
same,Crabgrass plant response rating,crabgrass; [9],0
same,Crabgrass plant response rating,crabgrass; [10],10
same,"Plant response rating, Crabgrass",crabgrass; [11],0
same,Crabgrass plant response rating,crabgrass; [12],0
same,Giant foxtail plant response rating,giant foxtail; [5],7
same,Giant foxtail plant response rating,giant foxtail; [6],10
same,"Plant response rating, Giant foxtail",giant foxtail; [7],10
same,Giant foxtail plant response rating,giant foxtail; [8],0
same,Giant foxtail plant response rating,giant foxtail; [9],0
same,Giant foxtail plant response rating,giant foxtail; [10],9
same,"Plant response rating, Giant foxtail",giant foxtail; [11],0
same,Giant foxtail plant response rating,giant foxtail; [12],0
same,Barley (winter) plant response rating (0 to 100 scale),winter barley,70
same,"Plant response rating, Barley (winter)",winter barley; [4],70
same,"Plant response rating, Barley (winter)",winter barley; [3],80
same,Green foxtail plant response rating (0 to 100 scale),green foxtail,100
same,"Plant response rating, Green foxtail",green foxtail; [4],100
same,"Plant response rating, Green foxtail",green foxtail; [3],100
same,"Plant response rating, Wheat (winter)",winter wheat [1]; [13],80
same,Wheat (winter) plant response rating,winter wheat [1]; [14],55
same,"Plant response rating, Wheat (winter)",winter wheat [1]; [15],70
same,Soybean plant response rating,soybean; [5],0
same,Soybean plant response rating,soybean; [6],0
same,"Plant response rating, Soybean",soybean; [7],0
same,Soybean plant response rating,soybean; [8],2
same,Soybean plant response rating,soybean; [10],0
same,"Plant response rating, Soybean",soybean; [11],3
same,Soybean plant response rating,soybean; [12],3
same,Wheat (winter) plant response rating (0 to 100 scale),winter wheat [2],60
same,"Plant response rating, Wheat (winter)",winter wheat [2]; [4],65
same,"Plant response rating, Wheat (winter)",winter wheat [2]; [3],80
C=CCCCn1c(=O)on(C(=O)N(c2ccc(F)cc2)C(C)C)c1=O [Compound 291],Blackgrass plant response rating (0 to 100 scale),blackgrass,30
same,"Plant response rating, Blackgrass",blackgrass; [4],40
same,"Plant response rating, Blackgrass",blackgrass; [3],50
same,Wild oat plant response rating (0 to 100 scale),wild oat,20
same,"Plant response rating, Wild oat",wild oat; [4],50
same,"Plant response rating, Wild oat",wild oat; [3],60
same,Sugarbeets plant response rating,sugar beet; [16],0
same,Sugarbeets plant response rating,sugar beet; [17],0
same,Sugarbeets plant response rating,sugar beet; [5],0
same,Sugarbeets plant response rating,sugar beet; [18],0
same,Sugarbeets plant response rating,sugar beet; [19],0
same,Sugarbeets plant response rating,sugar beet; [8],0
same,Sugarbeets plant response rating,sugar beet; [9],0
same,Sugarbeets plant response rating,sugar beet; [10],0
same,I. Ryegrass plant response rating (0 to 100 scale),Italian ryegrass,70
same,"Plant response rating, I. Ryegrass",Italian ryegrass; [4],100
same,"Plant response rating, I. Ryegrass",Italian ryegrass; [3],90
same,Crabgrass plant response rating,crabgrass; [16],0
same,Crabgrass plant response rating,crabgrass; [17],0
same,Crabgrass plant response rating,crabgrass; [5],0
same,Crabgrass plant response rating,crabgrass; [18],0
same,Crabgrass plant response rating,crabgrass; [19],0
same,Crabgrass plant response rating,crabgrass; [8],0
same,Crabgrass plant response rating,crabgrass; [9],0
same,Crabgrass plant response rating,crabgrass; [10],0
same,Giant foxtail plant response rating,giant foxtail; [16],0
same,Giant foxtail plant response rating,giant foxtail; [17],8
same,Giant foxtail plant response rating,giant foxtail; [5],8
same,Giant foxtail plant response rating,giant foxtail; [18],0
same,Giant foxtail plant response rating,giant foxtail; [19],7
same,Giant foxtail plant response rating,giant foxtail; [8],0
same,Giant foxtail plant response rating,giant foxtail; [9],0
same,Giant foxtail plant response rating,giant foxtail; [10],9
same,Barley (winter) plant response rating (0 to 100 scale),winter barley,10
same,"Plant response rating, Barley (winter)",winter barley; [4],30
same,"Plant response rating, Barley (winter)",winter barley; [3],20
same,Green foxtail plant response rating (0 to 100 scale),green foxtail,55
same,"Plant response rating, Green foxtail",green foxtail; [4],85
same,"Plant response rating, Green foxtail",green foxtail; [3],100
same,"Plant response rating, Wheat (winter)",winter wheat [1]; [13],55
same,Wheat (winter) plant response rating,winter wheat [1]; [14],30
same,"Plant response rating, Wheat (winter)",winter wheat [1]; [15],40
same,Soybean plant response rating,soybean; [16],1
same,Soybean plant response rating,soybean; [17],0
same,Soybean plant response rating,soybean; [5],0
same,Soybean plant response rating,soybean; [18],1
same,Soybean plant response rating,soybean; [19],0
same,Soybean plant response rating,soybean; [8],1
same,Soybean plant response rating,soybean; [9],3
same,Soybean plant response rating,soybean; [10],0
same,Wheat (winter) plant response rating (0 to 100 scale),winter wheat [2],35
same,"Plant response rating, Wheat (winter)",winter wheat [2]; [4],50
same,"Plant response rating, Wheat (winter)",winter wheat [2]; [3],60
